# Experimental data reported in patent US12421225B2, “Heteroaromatic amide derivative and medicament containing the same” (KAKEN PHARMACEUTICAL CO., LTD., priority 2018, dated 2025).
# Target: human Nav1.7 (Homo sapiens (Human), UniProt Q15858)
# Assay: Human Nav1.7 inhibitory activity evaluation (automated patch clamp QPatch16X, HEK293A cells stably expressing human Nav1.7 and human Navβ1)
# Type: cell-based
# Conditions: human Nav1.7, automated patch clamp
# Method: Test Example 1: Human Nav1.7 Inhibitory Activity Evaluation
# A cell line in which human Nav1.7 and human Navβ1 subunits were stably expressed in HEK293A cells was used. Dulbecco's Modified Eagle Medium (DMEM) supplemeted with 10% fetal bovine serum, 600 μg/ml geneticin, and 2 μg/ml blasticidin S were used as culture medium under the conditions of 37° C. and 5% CO2 in T175 flasks to carry out culturing. When 60-80% confluence was reached, the cells were detached and a cell suspension of about 0.5-5.0×10^6 cells/mL was prepared. The amount of current through human Nav1.7 was recorded using a fully automatic patch clamp device QPatch16X (Sophion Biosciences) at room temperature. As the extracellular solution, the solution of 145 mM NaCl, 4 mM KCl, 1 mM MgCl2, 2 mM CaCl2, 10 mM Glucose, 10 mM 4-(2-hydroxyethyl)-1-piperazine ethanesulfonic acid (HEPES) at pH 7.4 was used. As the intracellular solution, the solution of 135 mM CsF, ⅕ mM glycol ether diaminetetraacetic acid (EGTA)/CsOH, 10 mM HEPES, 10 mM NaCl at pH 7.3 was used. The test compounds were dissolved in dimethyl sulfoxide (DMSO) and diluted with the extracellular solution to attain the DMSO concentration of 0.1% at the time of assay.
# The current response was obtained at a sampling frequency of 25 kHz, and noise was removed with a 3 kHz low-pass filter. The holding potential was −100 mV. Correction of the leakage current was carried out by applying a step pulse of −120 mV before the test pulse. In order to investigate inhibitory action of the test compound, the following test pulse was given: Namely, after depolarizing pulse of −10 mV was applied for 50 milliseconds, it was fixed at −120 mV for 500 milliseconds; a potential at which about 30-40% of the channel was inactivated was maintained for 15 seconds, then fixed again at −120 mV for 100 milliseconds, and finally a −10 mV depolarization pulse was given for 50 milliseconds. Test pulses were given before and after the test compound addition.
# The inhibitory activity of the test compound was determined based on the amount of inward current generated by the second depolarization pulse, and the 50% inhibitory concentration (IC50) was calculated from the concentration-response curve.
# Chain of human Nav1.7 (Q15858 whole entry): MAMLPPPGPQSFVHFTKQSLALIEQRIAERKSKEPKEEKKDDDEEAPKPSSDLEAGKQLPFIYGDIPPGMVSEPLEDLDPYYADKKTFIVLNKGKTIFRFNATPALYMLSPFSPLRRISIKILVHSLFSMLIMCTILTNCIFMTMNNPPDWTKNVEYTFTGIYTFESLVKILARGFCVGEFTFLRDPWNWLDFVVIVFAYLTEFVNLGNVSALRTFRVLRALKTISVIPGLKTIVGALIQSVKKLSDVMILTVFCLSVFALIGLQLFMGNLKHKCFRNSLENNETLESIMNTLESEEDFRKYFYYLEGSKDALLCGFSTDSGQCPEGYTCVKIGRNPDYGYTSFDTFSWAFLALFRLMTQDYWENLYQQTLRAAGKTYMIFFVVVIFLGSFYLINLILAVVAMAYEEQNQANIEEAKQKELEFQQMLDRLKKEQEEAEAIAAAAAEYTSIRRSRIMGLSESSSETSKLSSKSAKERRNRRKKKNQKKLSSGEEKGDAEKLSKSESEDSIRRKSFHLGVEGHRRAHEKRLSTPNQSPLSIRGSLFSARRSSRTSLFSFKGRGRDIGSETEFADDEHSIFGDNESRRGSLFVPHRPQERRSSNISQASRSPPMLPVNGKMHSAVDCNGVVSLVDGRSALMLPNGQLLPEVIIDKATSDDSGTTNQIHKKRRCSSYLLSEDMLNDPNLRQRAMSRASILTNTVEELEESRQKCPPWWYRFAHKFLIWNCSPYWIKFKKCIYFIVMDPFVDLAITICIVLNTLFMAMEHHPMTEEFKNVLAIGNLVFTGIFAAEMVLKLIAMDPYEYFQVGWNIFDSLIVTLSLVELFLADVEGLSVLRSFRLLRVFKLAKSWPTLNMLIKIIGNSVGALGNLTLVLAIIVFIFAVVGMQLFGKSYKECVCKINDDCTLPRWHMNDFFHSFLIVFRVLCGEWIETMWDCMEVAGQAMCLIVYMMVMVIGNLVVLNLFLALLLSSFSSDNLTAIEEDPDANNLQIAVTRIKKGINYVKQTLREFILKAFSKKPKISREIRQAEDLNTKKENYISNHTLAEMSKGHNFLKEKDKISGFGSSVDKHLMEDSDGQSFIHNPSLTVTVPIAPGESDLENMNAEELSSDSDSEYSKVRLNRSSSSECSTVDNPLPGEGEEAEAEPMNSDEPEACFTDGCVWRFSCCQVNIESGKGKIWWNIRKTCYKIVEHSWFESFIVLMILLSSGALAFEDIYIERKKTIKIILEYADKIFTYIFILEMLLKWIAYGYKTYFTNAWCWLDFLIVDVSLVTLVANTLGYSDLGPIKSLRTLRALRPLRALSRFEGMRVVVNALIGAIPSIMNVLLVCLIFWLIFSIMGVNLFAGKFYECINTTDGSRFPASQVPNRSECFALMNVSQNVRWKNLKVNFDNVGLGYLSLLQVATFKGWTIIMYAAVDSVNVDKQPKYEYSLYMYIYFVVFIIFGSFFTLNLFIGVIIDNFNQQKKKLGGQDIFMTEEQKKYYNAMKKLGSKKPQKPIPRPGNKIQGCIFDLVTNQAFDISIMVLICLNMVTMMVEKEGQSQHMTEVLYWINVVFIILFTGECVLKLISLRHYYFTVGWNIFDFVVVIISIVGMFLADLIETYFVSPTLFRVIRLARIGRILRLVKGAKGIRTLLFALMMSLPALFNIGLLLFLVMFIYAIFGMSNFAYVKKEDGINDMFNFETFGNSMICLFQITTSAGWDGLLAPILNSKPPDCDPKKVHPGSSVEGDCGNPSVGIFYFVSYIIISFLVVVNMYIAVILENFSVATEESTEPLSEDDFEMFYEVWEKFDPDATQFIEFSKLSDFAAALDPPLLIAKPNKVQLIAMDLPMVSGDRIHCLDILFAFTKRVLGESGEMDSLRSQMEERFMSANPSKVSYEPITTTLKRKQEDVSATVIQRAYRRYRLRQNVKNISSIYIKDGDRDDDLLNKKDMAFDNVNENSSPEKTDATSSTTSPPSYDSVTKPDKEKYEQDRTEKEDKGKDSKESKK
# Chain of human Nav1.7 (Q07699 19-218 partner): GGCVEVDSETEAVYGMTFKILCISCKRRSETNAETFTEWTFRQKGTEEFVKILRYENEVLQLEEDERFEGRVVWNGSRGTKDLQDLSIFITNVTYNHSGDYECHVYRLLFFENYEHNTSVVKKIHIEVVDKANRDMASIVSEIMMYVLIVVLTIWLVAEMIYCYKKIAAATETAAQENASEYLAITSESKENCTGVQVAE
row,Compound,IC50 [µM]
1,O=C(N[C@H]1COc2ccc(CCOC(F)F)cc2C1)c1cc2n(n1)CC(CCN1CC(F)(F)C1)O2 (stereo partly drawn) [Example 237],< 1
2,O=C(N[C@H]1COc2ccc(CCOC(F)(F)F)cc2C1)c1cc2n(n1)CC(CCN1CC(F)(F)C1)O2 (stereo partly drawn) [Example 239],< 1
3,O=C(N[C@H]1COc2ccc(C(F)(F)F)cc2C1)c1nn2c(c1-c1ccn[nH]1)OCC2 [Example 249],< 10
4,CC1(C)Cn2nc(C(=O)N[C@H]3COc4ccc(C(F)(F)F)cc4C3)c(-c3ccn[nH]3)c2O1 [Example 250],< 10
5,"O=C(N[C@H]1COc2ccc(C(F)(F)F)cc2C1)c1nn2c(c1-c1ccn[nH]1)COCC2 [Example 259, (R)-3-(1H-pyrazol-5-yl)-N-(6-(trifluoromethyl)chroman-3-yl)-6,7-dihydro-4H-pyrazolo[5,1-c][1,4]oxazine-2-carboxamide]",< 1
6,O=C(NC1COc2ccc(C(F)(F)F)cc2C1)c1cc2n(n1)CCN(CCC1CC1)C2 (stereo not drawn) [Example 264],< 1
7,N#Cc1ccc2c(c1)C[C@@H](NC(=O)c1cc3n(n1)CCN(CCc1ccc(F)cc1)C3)CO2 [Example 269],< 1
8,CC(C)CN1CCn2nc(C(=O)N[C@H]3COc4ccc(C#N)cc4C3)cc2C1 [Example 270],< 10
9,N#Cc1ccc2c(c1)C[C@@H](NC(=O)c1cc3n(n1)CCN(C1CCCC1)C3)CO2 [Example 271],< 10
10,O=C(N[C@H]1COc2ccc(Cl)cc2C1)c1cc2n(n1)CCN(CCOc1ccccn1)C2 [Example 274],< 10
11,COc1cc(C2(N3CCn4nc(C(=O)N[C@H]5COc6ccc(C#N)cc6C5)cc4C3)CC2)ccn1 [Example 286],< 10
12,C=Cc1cccc2c1CC(NC(=O)c1cn3c(n1)CCC(C(F)(F)F)C3)CO2 (stereo not drawn) [Example 293],< 10
13,CCOCc1cccc2c1CC(NC(=O)c1cn3c(n1)CCC(C(F)(F)F)C3)CO2 (stereo not drawn) [Example 296],< 10
14,N#CCc1cccc2c1CC(NC(=O)c1cn3c(n1)CCC(C(F)(F)F)C3)CO2 (stereo not drawn) [Example 297],< 10
15,O=C(N[C@H]1COc2ccccc2C1)c1nc2n(c1-c1ccccc1)CC(C(F)(F)F)CC2 (stereo partly drawn) [Example 299],< 1
16,N#Cc1c(C(=O)N[C@H]2COc3ccccc3C2)nc2n1CC(C(F)(F)F)CC2 (stereo partly drawn) [Example 300],< 10
17,O=C(N[C@H]1COc2ccccc2C1)c1nc2n(c1CCCO)CC(C(F)(F)F)CC2 (stereo partly drawn) [Example 301],< 10
18,C=Cc1c(C(=O)N[C@H]2COc3ccccc3C2)nc2n1CC(C(F)(F)F)CC2 (stereo partly drawn) [Example 302],< 10
19,O=C(N[C@H]1COc2ccc(CCOC(F)(F)F)cc2C1)c1nc2n(c1-c1ccccn1)CCCC2 [Example 306],< 1
20,O=C(c1cn2c(n1)CCC(c1cccc(N3CC(O)C3)n1)C2)N1CCC(c2ccccc2)C1 (stereo not drawn) [Example 309],< 10
21,O=C(c1cn2c(n1)CCC(c1cccc(N3CCCC3)n1)C2)N1CCC(c2ccccc2)C1 (stereo not drawn) [Example 310],< 10
22,O=C(N[C@H]1COc2ccccc2C1)c1cn2c(n1)CCC(c1cccc(C(F)(F)F)n1)C2 (stereo partly drawn) [Example 314],< 1

row,Compound,IC50 [µM]
1,O=C(c1cn2c(n1)CCC(c1cccnc1C(F)(F)F)C2)N1CCCC1c1ccccc1 (stereo not drawn) [Example 315],< 10
2,CCC(F)(CC)C1CCc2nc(C(=O)N[C@H]3COc4ccccc4C3)cn2C1 (stereo partly drawn) [Example 319],< 10
3,CC(C)(F)CCC1CCc2nc(C(=O)N[C@H]3COc4ccccc4C3)cn2C1 (stereo partly drawn) [Example 320],< 10
4,CN(C1CCc2nc(C(=O)N[C@H]3COc4ccccc4C3)cn2C1)S(=O)(=O)c1ccccc1 (stereo partly drawn) [Example 322],< 10
5,CN1Cc2nc(C(=O)NCCc3c[nH]c4ccccc34)cn2CC1c1ccccc1 (stereo not drawn) [Example 323],< 10
6,CN1Cc2nc(C(=O)N3CCC(F)(c4ccccc4Cl)C3)cn2CC1c1ccccc1 (stereo not drawn) [Example 329],< 1
7,CN1Cc2nc(C(=O)N3CC(Oc4cccc(C(F)(F)F)n4)C3)cn2CC1c1ccccc1 (stereo not drawn) [Example 330],< 10
8,CN1Cc2nc(C(=O)N3CCC(Oc4cccc(C(F)(F)F)n4)C3)cn2CC1c1cccc(OC(F)(F)F)c1 (stereo not drawn) [Example 335],< 10
9,O=C(N[C@H]1COc2ccccc2C1)c1nc2n(c1-c1ccccc1)CCN(C(=O)C(F)(F)F)C2 [Example 339],< 10
10,N#Cc1ccc2c(c1)C[C@@H](NC(=O)c1nc3n(c1-c1cccc(Cl)n1)CCOC3)CO2 [Example 341],< 1
11,O=C(N[C@H]1COc2ccc(C3CC3)cc2C1)c1nc2n(c1-c1ccccn1)CCOC2 [Example 342],< 1
12,O=C(N[C@H]1COc2ccc(C(F)(F)F)cc2C1)c1nc2n(c1-c1cccnc1OCC(F)(F)F)CCOC2 [Example 346],< 10
13,O=C(NC1COc2ccccc2C1)c1nn2c(c1-c1ccccc1)CCCC2 (stereo not drawn) [Example 347],< 10
14,COc1cccc(-c2c(C(=O)N[C@H]3COc4ccc(Cl)cc4C3)nn3c2CCCC3)n1 [Example 348],< 1
15,O=C(NC1COc2c(F)cc(F)cc2C1)c1cc2n(n1)CCC(c1ccccc1)O2 (stereo not drawn) [Example 354],< 10
16,O=C(NC1COc2ccc(Cl)cc2C1)c1cc2n(n1)CCC(c1ccccc1)O2 (stereo not drawn) [Example 355],< 1
17,O=C(NC1COc2ccc3ncccc3c2C1)c1cc2n(n1)CCC(c1ccccc1F)O2 (stereo not drawn) [Example 363],< 10
18,CCOC(C)c1ccc2c(c1)C[C@@H](NC(=O)c1cc3n(n1)CCC(c1ccccc1F)O3)CO2 (stereo partly drawn) [Example 365],< 10
19,COc1ncccc1C1CCn2nc(C(=O)N[C@H]3COc4ccc(Cl)cc4C3)cc2O1 (stereo partly drawn) [Example 367],< 1
20,O=C(N[C@H]1COc2ccc(CN3CCOCC3)cc2C1)c1cc2n(n1)CCC(c1ccccc1F)O2 (stereo partly drawn) [Example 368],< 10
21,CN(C)CCOCc1ccc2c(c1)C[C@@H](NC(=O)c1cc3n(n1)CCC(c1ccccc1F)O3)CO2 (stereo partly drawn) [Example 369],< 10
22,CN(C)C(=O)COCc1ccc2c(c1)C[C@@H](NC(=O)c1cc3n(n1)CCC(c1ccccc1F)O3)CO2 (stereo partly drawn) [Example 370],< 10

row,Compound,IC50 [µM]
1,COc1ccc(C2CCn3nc(C(=O)N[C@H]4COc5ccc(Cl)cc5C4)cc3O2)cn1 (stereo partly drawn) [Example 371],< 1
2,CCOc1ncccc1C1CCn2nc(C(=O)N[C@H]3COc4ccc(C#N)cc4C3)cc2O1 (stereo partly drawn) [Example 372],< 1
3,O=C(N[C@H]1COc2ccc(-c3ccncc3)cc2C1)c1cc2n(n1)CCC(C(F)(F)F)O2 (stereo partly drawn) [Example 376],< 10
4,COc1ncccc1-c1ccc2c(c1)C[C@@H](NC(=O)c1cc3n(n1)CCC(C(F)(F)F)O3)CO2 (stereo partly drawn) [Example 377],< 10
5,C=C1CCn2nc(C(=O)N[C@H]3COc4ccc(Cl)cc4C3)cc2O1 [Example 379],< 1
6,O=C(N[C@H]1COc2ccc(-c3cnc(N4CCC4)nc3)cc2C1)c1cc2n(n1)CCC(C(F)(F)F)O2 (stereo partly drawn) [Example 380],< 10
7,O=C(N[C@H]1COc2ccc(Cl)cc2C1)c1cc2n(n1)CCC(CF)O2 (stereo partly drawn) [Example 381],< 10
8,N#Cc1ccc2c(c1)C[C@@H](NC(=O)c1cc3n(n1)CCC(Cc1ccc(F)cc1)O3)CO2 (stereo partly drawn) [Example 384],< 1
9,CC1Oc2cc(C(=O)N[C@H]3COc4ccc(Cl)cc4C3)nn2CC1(F)F (stereo partly drawn) [Example 385],< 10
10,O=C(N[C@H]1COc2ccc(Cl)cc2C1)c1cc2n(n1)CCC(C1CC1)O2 (stereo partly drawn) [Example 387],< 1
11,N#Cc1ccc2c(c1)C[C@@H](NC(=O)c1cc3n(n1)CCC(C1CCC1)O3)CO2 (stereo partly drawn) [Example 388],< 1
12,N#Cc1ccc2c(c1)C[C@@H](NC(=O)c1cc3n(n1)CCC(C#Cc1ccccc1)O3)CO2 (stereo partly drawn) [Example 390],< 10
13,CC(C)C1CCn2nc(C(=O)N[C@H]3COc4ccc(C#N)cc4C3)cc2O1 (stereo partly drawn) [Example 393],< 10
14,COC(C)(C)C#CC1CCn2nc(C(=O)N[C@H]3COc4ccc(C#N)cc4C3)cc2O1 (stereo partly drawn) [Example 394],< 10
15,O=C(N[C@H]1COc2ccc(Cl)cc2C1)c1cc2n(n1)CCC(CC1CCOCC1)O2 (stereo partly drawn) [Example 395],< 1
16,C=Cc1ccc2c(c1)C[C@@H](NC(=O)c1cc3n(n1)CCC(C(F)(F)F)O3)CO2 (stereo partly drawn) [Example 396],< 1
17,O=C(N[C@H]1COc2ccc(CCOCC(F)(F)F)cc2C1)c1cc2n(n1)CCC(C(F)(F)F)O2 (stereo partly drawn) [Example 397],< 1
18,COC(C)(C)C#Cc1ccc2c(c1)C[C@@H](NC(=O)c1cc3n(n1)CCC(C(F)(F)F)O3)CO2 (stereo partly drawn) [Example 398],< 10
19,O=C(N[C@H]1COc2ccc(COC3CCC3)cc2C1)c1cc2n(n1)CCC(C(F)(F)F)O2 (stereo partly drawn) [Example 399],< 1
20,CC1(C)CCn2nc(C(=O)N[C@H]3COc4ccc(CCOC(F)(F)F)cc4C3)cc2O1 [Example 403],< 1
21,O=C(N[C@H]1COc2ccc(Cl)cc2C1)c1cc2n(n1)CCC(CC(F)F)O2 (stereo partly drawn) [Example 404],< 1
22,O=C(N[C@H]1COc2ccc(C3CC3)cc2C1)c1cc2n(n1)CCC(C(F)F)O2 (stereo partly drawn) [Example 405],< 1
